Experimental data published in patent publication US20100035943A1, “Oxa-and thiadiazoles and their use as metalloproteinase inhibitors” (VERNALIS (OXFORD) LTD, priority 2002, published 2010).

How the values were obtained:
Assay type in all cases: biochemical
92 kDa gelatinase (MMP9) = 92 kDa gelatinase (MMP9) (Homo sapiens, UniProt P14780); test: MMP9 enzyme inhibition assay (fluorogenic peptide substrate McaPLGLDpaAR); details: recombinant human 92 kDa gelatinase, 37° C., 2 hours
Experimental: (§1) Compounds were tested for inhibitory activity against 92 kDa gelatinase (MMP9) in an assay using a coumarin-labelled peptide substrate, (7-methoxycoumarin-4-yl)acetyl-Pro-Leu-Gly-Leu-(3-[2,4-dinitrophenyl]-L-2,3-diaminopropionyl)-Ala-Arg-NH2 (McaPLGLDpaAR) (Knight et al, FEBS Lett. 1992; 263-266).
(§2) Stock solutions were made up as follows: • Assay Buffer: 100 mM Tris-HCl pH 7.6 containing 100 mM NaCl, 10 mM CaCl2, and 0.05% Brij 35 • Substrate: 0.4 mM McaPLGLDpaAR (from Bachem) (0.437 mg/ml) stock solution in 100% DMSO (stored at −20° C.). Dilute to 8 μM in assay buffer. • Enzyme: Recombinant human 92 kDa gelatinase (MMP-9; APMA (4-aminophenyl • mercuric acetate)—activated if necessary) appropriately diluted in assay buffer.
(§3) Test Compounds were prepared initially as 10 mM compound solution in 100% DMSO, diluted to 1 mM in 100% DMSO, then serially diluted 3-fold in 100% DMSO across columns 1-10 of a 96-well microtitre plate Assay concentration range, 100 μM (column 1) to 5.1 nM (column 10)
(§4) The assay was performed in a total volume of 100 μl per well in 96-well microtitre plates. Activated enzyme (20 μl) was added to the wells followed by 20 μl of assay buffer. Appropriate concentrations of test compounds dissolved in 10 μl of DMSO were then added followed by 50 μl of McaPLGLDpaAR (8 μM, prepared by dilution of DMSO stock in assay buffer). For each assay ten concentrations of test compound were examined in duplicate. Control wells lack either enzyme or test compound. The reactions were incubated at 37° C. for 2 hours. The fluorescence at 405 nm was measured immediately with an SLT Fluostar fluorometer (SLT Labinstruments GmbH, Grödig, Austria) using 320 nm excitation, without stopping the reaction.
(§5) The effect of the test compound was determined from the dose response curve generated by the 10 duplicate concentrations of inhibitor. The IC50 (the concentration of compound required to give a 50% decrease in enzyme activity) was obtained by fitting data to the equation, Y=a+((b−a)/(1+(c/X)^d)). (Y=inhibition achieved for a particular dose; X=the dose in nM; a=minimum y or zero % inhibition; b=maximum y or 100% inhibition; c=is the IC50; d=is the slope). The result was rounded to one significant figure.

metalloelastase (MMP12) = metalloelastase (MMP12) (Homo sapiens, UniProt P39900); test: MMP12 enzyme inhibition assay (fluorogenic peptide substrate McaPLGLDpaAR); details: protocol as for MMP9 assay
Experimental: as §2, §3, §4, §5
as §1, with “metalloelastase (MMP12)” for “92 kDa gelatinase (MMP9)”, “263-266). The protocol for this assay was as described for the MMP9 assay above.” for “263-266).”

collagenase (MMP1) = target: T1, collagenase (MMP1) (Homo sapiens, UniProt P03956); test: MMP1 enzyme inhibition assay (fluorogenic peptide substrate McaPLGLDpaAR); details: protocol as for MMP9 assay
T1 sequence (P03956 100-469): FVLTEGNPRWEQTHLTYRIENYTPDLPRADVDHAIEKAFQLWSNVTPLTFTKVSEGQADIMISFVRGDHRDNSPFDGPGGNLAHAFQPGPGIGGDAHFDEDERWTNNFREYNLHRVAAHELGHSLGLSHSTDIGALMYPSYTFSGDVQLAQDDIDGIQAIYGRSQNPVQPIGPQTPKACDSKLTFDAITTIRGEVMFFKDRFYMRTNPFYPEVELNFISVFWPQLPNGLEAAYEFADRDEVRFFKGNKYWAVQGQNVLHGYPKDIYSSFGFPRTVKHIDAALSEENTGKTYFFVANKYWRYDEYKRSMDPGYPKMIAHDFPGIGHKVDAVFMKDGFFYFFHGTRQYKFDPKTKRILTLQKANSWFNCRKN
Experimental: as §2, §3, §4, §5
as §1, with “• Compounds” for “Compounds”, “collagenase (MMP1)” for “92 kDa gelatinase (MMP9)”, “263-266). The protocol for this assay was as described for the MMP9 assay above.” for “263-266).”

92 kDa gelatinase (MMP9), sequence (P14780 107-707 limits assumed): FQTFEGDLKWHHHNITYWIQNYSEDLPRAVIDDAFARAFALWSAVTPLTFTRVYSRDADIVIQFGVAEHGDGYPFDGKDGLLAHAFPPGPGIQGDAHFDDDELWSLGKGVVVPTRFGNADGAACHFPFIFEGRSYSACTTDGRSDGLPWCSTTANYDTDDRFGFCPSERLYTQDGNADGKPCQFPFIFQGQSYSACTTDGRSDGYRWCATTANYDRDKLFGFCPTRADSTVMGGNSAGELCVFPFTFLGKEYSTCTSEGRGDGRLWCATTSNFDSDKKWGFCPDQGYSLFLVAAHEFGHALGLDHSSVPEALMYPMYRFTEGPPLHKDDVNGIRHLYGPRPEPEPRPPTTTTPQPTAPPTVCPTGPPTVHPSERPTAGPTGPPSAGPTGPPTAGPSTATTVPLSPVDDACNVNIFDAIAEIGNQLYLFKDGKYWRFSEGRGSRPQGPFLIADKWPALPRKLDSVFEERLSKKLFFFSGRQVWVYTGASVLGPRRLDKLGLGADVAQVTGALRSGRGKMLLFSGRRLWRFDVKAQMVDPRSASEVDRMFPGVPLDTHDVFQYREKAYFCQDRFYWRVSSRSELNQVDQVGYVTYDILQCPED
metalloelastase (MMP12), sequence (P39900 106-470): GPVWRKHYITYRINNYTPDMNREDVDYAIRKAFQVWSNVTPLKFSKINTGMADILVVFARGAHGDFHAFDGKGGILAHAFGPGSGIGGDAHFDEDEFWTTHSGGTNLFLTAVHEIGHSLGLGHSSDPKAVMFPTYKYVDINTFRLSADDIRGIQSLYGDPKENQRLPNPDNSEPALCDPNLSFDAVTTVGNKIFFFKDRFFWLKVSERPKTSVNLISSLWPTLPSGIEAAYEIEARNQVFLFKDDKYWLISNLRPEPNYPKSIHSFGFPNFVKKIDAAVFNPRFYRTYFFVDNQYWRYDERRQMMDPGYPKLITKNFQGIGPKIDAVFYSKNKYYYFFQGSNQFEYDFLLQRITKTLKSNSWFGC

| Compound | IC50 (92 kDa gelatinase (MMP9)) [nM] | IC50 (metalloelastase (MMP12)) [nM] | IC50 (collagenase (MMP1)) [nM] |
| --- | --- | --- | --- |
| CC(C)C[C@@H](C(=O)N[C@H](c1noc(-c2ccccc2)n1)C(C)(C)C)[C@H](O)C(=O)NO [Example 1, 3R-[2,2-Dimethyl-1 S-(5-phenyl-[1,2,4]oxadiazol-3-yl)-propylcarbamoyl]-2S-hydroxy-5-methyl-Hexanohydroxamic Acid] | 100 to 1000 | < 100 | 100 to 1000 |
| CC(C)C[C@@H](C(=O)N[C@H](c1nc(-c2ccccc2)no1)C(C)(C)C)[C@H](O)C(=O)NO [Example 2, 3R-[2,2-Dimethyl-1S-(3-phenyl-[1,2,4]oxadiazol-5-yl)-propylcarbamoyl]-2S-hydroxy-5-methyl-hexanohydroxamic Acid] | 100 to 1000 | < 100 | 100 to 1000 |
| CCOc1ccc(CCC[C@@H](C(=O)N[C@H](c2noc(-c3cccs3)n2)C(C)(C)C)[C@H](O)C(=O)NO)cc1 [Example 3] | < 100 | < 100 | > 10000 |
| CC(C)C[C@@H](C(=O)N[C@H](c1noc(Cc2cccs2)n1)C(C)(C)C)[C@H](O)C(=O)NO [Example 7, 2S-Hydroxy-3R-[1S-(5-thiopen-2-ylmethyl-[1,2,4]oxadiazol-3-yl)-2,2-dimethyl-propylcarbamoyl]-5-methyl Hexanohydroxamic Acid] | 1000 to 10000 | 100 to 1000 | 1000 to 10000 |
| CC(C)C[C@@H](C(=O)N[C@H](c1noc(Cc2ccccc2)n1)C(C)(C)C)[C@H](O)C(=O)NO [Example 10, 2S-Hydroxy-3R-[1S-(5-benzyl-[1,2,4]oxadiazol-3-yl)-2,2-dimethyl-propylcarbamoyl]-5-methyl Hexanohydroxamic Acid] | 1000 to 10000 | < 100 | 1000 to 10000 |
| CC(C)C[C@@H](C(=O)N[C@H](c1noc(C(C)(C)C)n1)C(C)(C)C)[C@H](O)C(=O)NO [Example 12, 2S-Hydroxy-3R-[1S-(5-tert-butyl-[1,2,4]oxadiazol-3-yl)-2,2-dimethyl-propylcarbamoyl]-5-methyl Hexanohydroxamic Acid] | 100 to 1000 | < 100 | 100 to 1000 |
| Cc1ccc(-c2nc([C@@H](NC(=O)[C@H](CC(C)C)[C@H](O)C(=O)NO)C(C)(C)C)no2)cc1 [Example 15, 2S-Hydroxy-3R-[1S-(5-p-tolyl-[1,2,4]oxadiazol-3-yl)-2,2-dimethyl-propylcarbamoyl]-5-methyl Hexanohydroxamic Acid] | 100 to 1000 | < 100 | 100 to 1000 |
| CC(C)C[C@@H](C(=O)N[C@H](c1nc(C(C)C)no1)C(C)(C)C)[C@H](O)C(=O)NO [Example 18, 2S-Hydroxy-3R-[1S-(3-isopropyl-[1,2,4]oxadiazol-3-yl)-2,2-dimethyl-propylcarbamoyl]-5-methyl Hexanohydroxamic Acid] | 100 to 1000 | < 100 | 100 to 1000 |
| C=CC[C@H](C(=O)NO)[C@@H](CC(C)C)C(=O)N[C@@H](Cc1ccccc1)c1nc(C)no1 [Example 22, 2S-Allyl-5-methyl-3R-[2-phenyl-1S-(3-methyl-[1,2,4]oxadiazol-5-yl)-ethylcarbamoyl]-hexanohydroxamic Acid] | – | – | < 100 |
| CCCCCCCCCCCCCC[C@H](CC(=O)O)C(=O)N[C@H](c1nc(-c2ccccc2)no1)C(C)(C)C [Example 26, 3R-[2,2-Dimethyl-1S-(3-phenyl-[1,2,4]oxadiazol-5-yl)-propylcarbamoyl]-heptadecanoic Acid] | > 10000 | > 10000 | – |
| CCCCCCCCCCCCCCCC[C@H](CC(=O)O)C(=O)N[C@H](c1nc(-c2ccccc2)no1)C(C)(C)C [Example 27, 3R-[2,2-Dimethyl-1S-(3-phenyl-[1,2,4]oxadiazol-5-yl)-propylcarbamoyl]-nonadecanoic Acid] | > 10000 | > 10000 | – |
| CC(C)(C)[C@H](NC(=O)[C@H](CCCc1ccc(Cl)cc1)CC(=O)O)c1noc(-c2ccccc2)n1 [Example 28, 6-(4-Chloro-phenyl)-3R-[2,2-dimethyl-1S-(5-phenyl-[1,2,4]oxadiazol-3-yl)-propylcarbamoyl]-hexanoic Acid] | – | > 10000 | – |

Second part, the compound after the results:

| IC50 (92 kDa gelatinase (MMP9)) [nM] | IC50 (metalloelastase (MMP12)) [nM] | IC50 (collagenase (MMP1)) [nM] | Compound |
| --- | --- | --- | --- |
| 100 to 1000 | < 100 | 100 to 1000 | CC(C)C[C@@H](C(=O)N[C@H](c1noc(C(C)C)n1)C(C)(C)C)[C@H](O)C(=O)NO [Example 4, 2S-Hydroxy-3R-[1S-(5-isopropyl-[1,2,4]oxadiazol-3-yl)-2,2-dimethyl-propylcarbamoyl]-5-methyl Hexanohydroxamic Acid] |
| 1000 to 10000 | < 100 | 100 to 1000 | CC(C)C[C@@H](C(=O)N[C@H](c1noc(CC2CCCC2)n1)C(C)(C)C)[C@H](O)C(=O)NO [Example 6, 2S-Hydroxy-3R-[1S-(5-cyclopentylmethyl-[1,2,4]oxadiazol-3-yl)-2,2-dimethyl-propylcarbamoyl]-5-methyl Hexanohydroxamic Acid] |
| 100 to 1000 | < 100 | 100 to 1000 | CCc1nc([C@@H](NC(=O)[C@H](CC(C)C)[C@H](O)C(=O)NO)C(C)(C)C)no1 [Example 8, 2S-Hydroxy-3R-[1S-(5-ethyl-[1,2,4]oxadiazol-3-yl)-2,2-dimethyl-propylcarbamoyl]-5-methyl Hexanohydroxamic Acid] |
| 1000 to 10000 | < 100 | 100 to 1000 | CC(C)C[C@@H](C(=O)N[C@H](c1noc(C2CCCC2)n1)C(C)(C)C)[C@H](O)C(=O)NO [Example 9, 2S-Hydroxy-3R-[1S-(5-cyclopentyl-[1,2,4]oxadiazol-3-yl)-2,2-dimethyl-propylcarbamoyl]-5-methyl Hexanohydroxamic Acid] |
| 1000 to 10000 | < 100 | 1000 to 10000 | CC(C)Cc1nc([C@@H](NC(=O)[C@H](CC(C)C)[C@H](O)C(=O)NO)C(C)(C)C)no1 [Example 11, 2S-Hydroxy-3R-[1S-(5-isobutyl-[1,2,4]oxadiazol-3-yl)-2,2-dimethyl-propylcarbamoyl]-5-methyl Hexanohydroxamic Acid] |
| 1000 to 10000 | < 100 | 1000 to 10000 | CC(C)C[C@@H](C(=O)N[C@H](c1noc(CC(C)(C)C)n1)C(C)(C)C)[C@H](O)C(=O)NO [Example 14, 2S-Hydroxy-3R-[1S-(5-(2,2-dimethyl-propyl)-[1,2,4]oxadiazol-3-yl)-2,2-dimethyl-propylcarbamoyl]-5-methyl Hexanohydroxamic Acid] |
| 100 to 1000 | < 100 | 100 to 1000 | CC(C)C[C@@H](C(=O)N[C@H](c1noc(C2CC2)n1)C(C)(C)C)[C@H](O)C(=O)NO [Example 16, 2S-Hydroxy-3R-[1S-(5-cyclopropyl-[1,2,4]oxadiazol-3-yl)-2,2-dimethyl-propylcarbamoyl]-5-methyl Hexanohydroxamic Acid] |
| 1000 to 10000 | < 100 | 100 to 1000 | Cc1nc([C@@H](NC(=O)[C@H](CC(C)C)[C@H](O)C(=O)NO)C(C)(C)C)no1 [Example 17, 2S-Hydroxy-3R-[1S-(5-methyl-[1,2,4]oxadiazol-3-yl)-2,2-dimethyl-propylcarbamoyl]-5-methyl Hexanohydroxamic Acid] |
